Assay results as given in US5516789A, “Lipoxygenase and cyclooxygenase inhibiting compounds” (Abbott Laboratories, priority 1995, dated 1996).
pIC50: −log10 of the molar value.

Experiments:
[1] = system: LTB4 formation in human whole blood; test: Calcium ionophore (A23187)-induced LTB4 biosynthesis in human whole blood; format: cell-based; settings: human heparinized whole blood; 15 min preincubation at 37° C.; A23187 50.0 μM, 30 min; read-out: IC50, in vitro inhibitory potency against stimulated LTB4 formation in human whole blood
Protocol: Inhibition of leukotriene biosynthesis was evaluated in an assay, involving calcium ionophore-induced LTB4 biosynthesis in human whole blood. Human heparinized whole blood was preincubated with test compounds or vehicle for 15 min at 37° C. followed by calcium ionophore A23187 challenge (final concentration of 50.0 μM) and the reaction terminated after 30 min by adding two volumes of methanol. The methanol extract was analyzed for LTB4 using a commercially available immunoassay.

[2] = system: biosynthesis of leukotrienes; test: Rat peritoneal anaphylaxis model, inhibition of leukotriene biosynthesis in vivo after oral administration; settings: oral gavage one hour prior to antigen challenge, @ 15 mg/kg
Protocol: Inhibition of the biosynthesis of leukotrienes in vivo after oral administration of compound was determined using a rat peritoneal anaphylaxis model similar to that described by Young and coworkers (Young, P. R.; Bell, R. L.; Lanai, C.; Summers, J. B.; Brooks, D. W.; Carter, G. W. (1991): Inhibition of leukotriene biosynthesis in the rat peritoneal cavity. Eur. J. Pharmacol 1991, 205, 259-266). In this model rats were injected intraperitoneally (ip) with rabbit antibody to bovine serum albumin (BSA) and three hours later injected ip with BSA to induce an antigen-antibody response. Rats were sacrificed 15 minutes after this challenge and the peritoneal fluids were collected and analyzed for leukotriene levels. Test compounds were administered by gavage one hour prior to the antigen challenge. To measure immunoreactive leukotriene levels in the various lavage fluids, the samples were diluted 1:3 (v/v) with the EIA buffer containing 100 mM phosphate, 1.5 mM sodium azide, 400 mM sodium chloride, 0.1 mM sodium EDTA and 0.1% BSA, pH 7.4. Methanol, at a final concentration of 22%, was included in the assay standards to compensate for the amount in the biological samples. EIA reagents for cysteinyl leukotrienes determination were purchased from, Cayman Chemical Co., Ann Arbor, Mich. The LTE4 tracer was prepared in-house. The immunoassays for LTE4 were then conducted as recommended by the manufacturer with the exception that volumes were adjusted to accommodate automation using a Cetus Propette (Cetus Corp., San Francisco, Calif.). The EIA was conducted in 96 well microtiter plates (Nunc Roskilde, Denmark) and optical density measured using a microplate reader (Vmax, Molecular Devices Corp., Menlo Park, Calif.). Percent inhibition values were determined by comparing the treatment group to the mean of the control group.

[3] = system: biosynthesis of prostaglandins; test: Rat pleural inflammation model (A23187), inhibition of prostaglandin biosynthesis in vivo; settings: oral dose of 10 mg/kg, TXB2 by EIA
Protocol: (§1) Pleural inflammation was induced in male rats following the method of Rao et. al., Life Sci, 1993, 53, 52. Animals were dosed with experimental compounds in 0.2% HPMC one hour prior to the intrapleural injection of the calcium ionophore, A23187. The rats were lightly anesthetized with Penthrane (Abbott Laboratories) and injected intrapleurally with 0.5 ml of 2% ethanol in injectable saline (Abbott Laboratories) containing 20 μg of A23187 (Cal BioChem-Novabiochem). Thirty minutes later the animals were euthanized and the pleural cavities lavaged with ice cold saline. The lavage fluid was then added to ice cold methanol (final methanol concentration 30%) to lyse cells and precipitate protein.
(§2) Cyclooxygenase activity of whole blood was determined by analysis of these samples for TXB2 by EIA (Advanced Magnetics, Cambridge, Mass.).

[4] = system: biosynthesis of leukotrienes; test: Rat pleural inflammation model (A23187), inhibition of leukotriene biosynthesis in vivo; settings: oral dose of 10 mg/kg
Protocol: as §1, §2

[5] = system: LTB4; test: Dog ex vivo A23187-stimulated blood after oral dosing, inhibition of LTB4; format: in vivo; settings: beagle dog, oral dose of 2 mg/kg, 8 hours after dosing; blood incubated with 50 μM A23187
Excerpt: (§3) Inhibition of both leukotriene formation and prostaglandin formation was also shown in the dog. This was done using the method described by Carter et al. (Carter, G. W., Young, P. R., Albert, D. H., Bouska, J., Dyer, R., Bell, R. L., Summers, J. B. and Brooks, D. W.: J. Pharmacol. Exp. Ther. 256: 929-937, 1991.). Compound was suspended in 0.2% methylcellulose with a Potter-Elvehjem homogenizer equipped with a Teflon-coated pestle and administered orally to beagle dogs (Marshall Farms, North Rose, N.Y.) All animals were fasted overnight before dosing but allowed water ad libitum. Heparinized blood samples were obtained before and at various times after compound administration. Aliquots of blood were incubated at 37° with 50 μM with calcium ionophore, A23187. After 30 minutes, the blood was placed in an ice bath and analyzed for LTB4 and TXB2 as described above.

[6] = system: TXB2; test: Dog ex vivo A23187-stimulated blood after oral dosing, inhibition of TXB2; format: in vivo; settings: beagle dog, oral dose of 2 mg/kg, 8 hours after dosing; blood incubated with 50 μM A23187
Excerpt: as §3

Structure (SMILES)	pIC50 [1]	% Inhibition (in vivo, leukotriene biosynthesis) [2]	further results
COc1ccc2c(c1)c(CC(=O)ON(C(N)=O)C(C)c1cc3ccccc3s1)c(C)n2C(=O)c1ccc(Cl)cc1 (centres unmarked) [Example 4, N-[2-(N-(4-chlorobenzoyl)-5-methoxy-2-methyl-[1H]-indol-3-yl)acetoxy]-N-[1-(benzo[b]thien-2-yl)ethyl] urea]	5.74		
COc1ccc2cc([C@H](C)C(=O)ON(C(N)=O)[C@H](C)C#Cc3ccc(Cc4ccc(F)cc4)s3)ccc2c1 [Example 21, N-[(S)-2-(6-methoxynaphth-2-yl)propionyloxy]-N-[3-(5-(4-fluorophenylmethyl)thien-2-yl)-(R)-1-methyl-2-propynyl]urea]			inhibition of the biosynthesis of prostaglandins [3]: 68%; inhibition of the biosynthesis of leukotrienes [4]: 71%; inhibition of LTB4 [5]: 54%; inhibition of TXB2 [6]: 47%
CC(=O)Oc1ccccc1C(=O)ON(C(N)=O)C(C)C#Cc1ccc(Oc2ccc(F)cc2)o1 (centres unmarked) [Example 37, N-[2-(acetoxybenzoyl)oxy]-N-[3-(5-(4-fluorophenoxy)fur-2-yl)-1-methyl-2-propynyl]urea]	6.80		

Further lines, with some results ahead:

pIC50 [1]	Structure (SMILES)	% Inhibition (in vivo, leukotriene biosynthesis) [2]	further results
5.40	COc1ccc2cc([C@H](C)C(=O)ON(C(N)=O)C(C)c3ccoc3)ccc2c1 (stereo partly drawn) [Example 1, N-[(S)-2-(6-methoxynaphth-2-yl)propionyloxy]-N-[1-(fur-3-yl)ethyl]urea]		
5.24	CC(C)Cc1ccc(C(C)C(=O)ON(C(N)=O)C(C)c2cc3ccccc3s2)cc1 (centres unmarked) [Example 3, N-[2-(4-(2-methylpropyl)phenyl)propionyloxy]-N -[1-(benzo[b]thien-2-yl)ethyl]urea]		
5.89	COc1ccc2cc([C@H](C)C(=O)ON(C(N)=O)C(C)C#Cc3ccc(Oc4ccc(F)cc4)o3)ccc2c1 (stereo partly drawn) [Example 18, N-[(S)-2-(6-methoxynaphth-2-yl)propionyloxy]-N-[3-(5-(4-fluorophenoxy)fur-2-yl)-1-methyl-2-propynyl]urea]	40%	
5.92	CC(C)Cc1ccc(C(C)C(=O)ON(C(N)=O)C(C)C#Cc2ccc(Oc3ccc(F)cc3)o2)cc1 (centres unmarked) [Example 19, N-[2-(4-(2-methylpropyl)phenyl)propionyloxy]-N-[3-(5-(4-fluorophenoxy)fur-2-yl)-1-methyl-2-propynyl]urea]	41%	
5.00	CC(C)Cc1ccc(C(C)C(=O)ON(C(N)=O)C(C)c2ccoc2)cc1 (centres unmarked) [Example 20, N-[2-(4-(2-methylpropyl)phenyl)propionyloxy]-N-[1-(fur-3-yl)ethyl]urea]	43%	
